Test system: NK cells
Test: NK cell effector functions and surface receptors, flow cytometry
Type: cell-based, human
Conditions: IL-15-primed NK cells (10 ng/ml), PDGF ligand 50 ng/ml, 48 h
Protocol: FIGS. 3A-3K. […] (A-E) Primary NK cells were treated with IL-15 (10 ng/ml) in the presence of PDGF-B (50 ng/ml) or PDGF-D (50 ng/ml) for 48 h. Expression levels of IFN-γ, TNF-α, granzyme B, perforin, and CD107a were examined by flow cytometry (n=5). (F-K) Primary NK cells were treated with IL-15 (10 ng/ml) plus PDGF-D (50 ng/ml) in the presence of anti-NKp44 (10 βg/ml) or anti-PDGFRβ (10 μg/ml) for 48 h. Expression levels of IFN-γ, TNF-α, and CD107a were examined by flow cytometry (n=3). Data represent three independent experiments. Data shown are means±SD. NS, not significant. *P<0.05, **P<0.01, and ***P<0.001.
FIGS. 10A-10K. […] (A-E) Representative histograms and summary data of IFN-γ, TNF-α, granzyme B, perforin, and CD107a in PDGFRβ^+ and PDGFRβ^− NK cells. Cells were gated on CD56^+PDGFRβ^+ or CD56^+PDGFRβ^− cells. (F) PDGFRβ^+ and PDGFRβ^− NK cells were sorted by flow cytometry and co-cultured with ^51 Cr-labeled K562 cells in a 96-well V-bottom plate at ratios of 5:1, 2.5:1, or 1.25:1 for 4 h at 37° C. in a 5% CO2 incubator. The supernatant was harvested and analyzed using a microbeta scintillation counter (n=3). […]
Cells were stained with the indicated cell-surface markers and/or fixed/permeabilized using a Fixation/Permeabilization Kit (eBioscience). […] Data were analyzed using NovoExpress software (Agilent Technologies).

“PDGF-D: recombinant human PDGF-DD (1159-SB-025), R&D Systems” was tested, and the “expression of IFN-γ, TNF-α, perforin, and CD107a” value was “induced” and the “expression of granzyme B” value was “not granzyme B”.
